{
  "source": "paper PMC8669469",
  "about": "“A Novel Locally c-di-GMP-Controlled Exopolysaccharide Synthase Required for Bacteriophage N4 Infection of Escherichia coli” (mBio, 2021)",
  "target": "T1, NfrB (Escherichia coli, UniProt P0AFA5)",
  "T1 construct": "soluble MshEN domain, NfrB^414-745",
  "T1 sequence (P0AFA5 414-745)": "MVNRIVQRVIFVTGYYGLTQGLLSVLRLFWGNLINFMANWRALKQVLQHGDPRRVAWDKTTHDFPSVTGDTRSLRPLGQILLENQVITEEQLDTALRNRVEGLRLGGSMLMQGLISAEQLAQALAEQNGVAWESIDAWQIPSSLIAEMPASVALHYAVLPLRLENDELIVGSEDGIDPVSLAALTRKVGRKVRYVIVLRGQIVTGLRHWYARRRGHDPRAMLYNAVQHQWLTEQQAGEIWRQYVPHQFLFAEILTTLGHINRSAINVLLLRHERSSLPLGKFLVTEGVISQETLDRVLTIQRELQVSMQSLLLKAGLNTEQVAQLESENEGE",
  "test": "microscale thermophoresis with purified protein; DRaCALA with […]-c-di-GMP and competition by unlabeled c-di-GMP",
  "format": "binding",
  "data": [
    {"smiles": "Nc1nc2c(ncn2[C@@H]2O[C@@H]3CO[P@](=O)(O)O[C@H]4[C@@H](O)[C@H](n5cnc6c(=O)[nH]c(N)nc65)O[C@@H]4CO[P@](=O)(O)O[C@H]3[C@H]2O)c(=O)[nH]1", "note": "[c-di-GMP]", "values": [
      {"measurement": "Kd", "value": "1000 ± 350", "unit": "nM"}
    ]}
  ]
}
